Series [1] is described as follows: Salmon calcitonin/PTS893 monkey study: in vivo examinations (mortality, food consumption, clinical observations, body weight). Also on record: species or system cynomolgus monkeys (Macaca fascicularis). The following applies: males. How it is done: Solvent was used as vehicle for the control group.
The animals used in this analysis were cynomolgus monkeys (Macaca fascicularis), supplied by Centre de Recherches Primatologiques, Port Louis, Mauritius. Two animals were used per group and sex. […] Animals were examined daily for mortality, food consumption and clinical observations. Body weight was recorded once per week.
In vivo examinations. No significant histopathological changes were observed.

The next series concerns somatostatin receptors. The note with it: cited from earlier work.
Series [2] relates to hyperoxia-induced angioproliferative retinopathy. The series is described as follows: Hypoxic vascular retinopathy mouse model: proliferation score on retinal flatmounts after intravitreal injection. The series is classed as in vivo, C57/B16J mice. Set-up: key to blood vessel tufts: points summed over zones; Zone 2 max 4 P, Zones 3 and 4 max 12 P; avascular zone: scale not given here. The protocol: Seven days old C57/B16J mice are put together with their nursing parent in a sealed container ventilated by a mixture of oxygen and compressed air to a final oxygen concentration of 75%±2% until day 12. Returned at room air, the animals develop a relative ischemia of the retina with neovascularization starting as early as day 14.
On day 12, when animals returned from the oxygen incubation, a volume of 2.0 μl is injected in the eye using a glass pipette with a diameter of about 150 μm at its tip.
For the intravitreal injection of a substance at day 12, mice are anesthetized by inhalation of isoflurane. Five days later the animals are sacrificed after perfusion with dextran-fluorescein and retinal flatmounts are prepared. The coded whole mounts allow to evaluate the vascular changes of the retinal blindly. The proliferation score includes quantification of the proliferation including the papilla, vascular development, vasoconstriction, retinal bleeding and tortuosity of the vessels, features also seen in human retinal disease.
Of those, 8 animals died during hyperoxia or after injection, 2 animals are not perfused, 5 animals are paraffin embedded for evaluation of neurons, of which only three could be examined, and from 29 of these animals retinal flatmounts are prepared.
Evaluation of the angioproliferative changes in the retinal preparations is performed in a masked way on coded preparations. […] The following features are taken into consideration: neovascularisation of the optic disc, blood vessel tufts formation, large clusters of blood vessel tufts, central vasoconstriction and tortuosity of the vessels. Retinal haemorrhages are not taken into account as they may also result from the intraocular injection.
For each criteria, a defined number of points (P) is assigned, which are summed up to a total proliferation score. The higher the score, the worse the hypoxia induced retinopathy. In detail:
Neovascularisation of the optic disc: either 1 or 0 points are assigned in case optic disc proliferation is measured (1 P) or absence (0 P).
Blood vessel tufts formation: the score for blood vessel tufts is determined by dividing every clock hour of the preparation surface in 4 zones: Zone 1 (optic disc zone) is evaluated in addition; Zone 2: one point for every wing (maximal 4 P); Zone 3: one point for every clock hour (maximal 12 P); and Zone 4: one point for every clock hour (maximal 12 P). Thus, a maximum of 28 points is measured provided that no avascular areas exist, and a maximum of 12 points is calculated in case of complete avascularization.
Large clusters of blood vessel tufts: every large cluster of blood vessel tufts covering more than 3 sectors is counted as one point. Thus, maximal 8 points can be measured provided that no avascular areas exist, and maximal 4 points are assignable for complete avascularization.
Central vasoconstriction: 1 point is assigned to a vasoconstriction of zone 1 of greater than 50%; 1 point is allocated if the vasoconstriction is greater than 50% of every wing of zone 2 and 3. Thus, maximal 1 point can be assigned to zone 1, and maximal 4 points each for zones 2, 3 and 4. Since so far no vasoconstriction is ever observed for zone 4, a maximum of total 9 points (without zone 4) can be allotted.
Tortuosity of the vessels: 2 points are assigned if less than one-third of the vessels are tortuous; if the amount of tortuous blood vessels is between one-third and two-thirds, 4 points are allocated, and in case more than two-thirds of the vessels are tortuous, than 6 points are given.
Proliferation in avascular zones is never observed. This is in principle a mutual exclusion of criteria; the existence of vascular proliferations has a higher impact on the retinopathy score than large avascular areas. Therefore, the maximum score ever counted with this system is 38 points using a substance which is considered to enhance vascular proliferation.
The severity of retinopathy varies from animal to animal. […]

The next series relates to retinal neuronal layers. How it is done:
The total thickness of the outer nuclear layer, the inner nuclear layer and the ganglion cell layer is measured using a standardized magnification after paraffin embedding and hematoxylin and eosin (HE)-staining. Three sections of each eye are measured at three locations each. […] Sections are encoded for evaluation.

Setting [3] is: right eye, FGF23CTP intravitreal, individual animals, retinal flatmounts.
Setting [4] is: treated right eye (FGF23CTP) vs control left eye (PBS), DF 28.
Where [5] appears, read: right eye (FGF23CTP), average of all measurements of three animals, x200 magnification.

Values joined by “and” are separate entries in the source; they are usually repeats but may differ in a detail not shown here. Equal values may be shown once. “Also recorded” adds a separate entry of the source.

“Leu8, Asp10, Lysll, A1a16, G1n18, Thr33, A1a34 human PTH 1-34 [PTS893, Leu8, Asp10, Lysll, A1a16, G1n18, Thr33, A1a34 human PTH 1-34 [hPTH(1-34)]]”: in series [1] (average of both animals of the group), the “Food Consumption, Avg., Both animals” value was determined as 89.6. Also, the “Food Consumption, Avg.” value in series [1] (average per individual animal) is 87.5 and 91.7. In addition, the “Food Consumption, Day 1” value in series [1] (day 1 of SC dosing, individual animals) stood at 100. Besides, the “Food Consumption, Day 2” value in series [1] (day 2 of SC dosing, individual animals) is recorded as 100. Besides, the “Food Consumption, Day 3” value in series [1] (day 3 of SC dosing, individual animals) came to 100. For the same molecule, in series [1] (day 4 of SC dosing, individual animals), the “Food Consumption, Day 4” value amounted to 100. In series [1] (day 5 of SC dosing, individual animals), the “Food Consumption, Day 5” value is reported as 100. Besides, the “Food Consumption, Day 6” value in series [1] (day 6 of SC dosing, individual animals) worked out at 100. For the same molecule, the “Food Consumption, Day 7” value in series [1] (day 7 of SC dosing, individual animals) came to 100. The “Food Consumption, Day 8” value in series [1] (day 8 of SC dosing, individual animals) is 100. Further, the “Food Consumption, Day 9” value in series [1] (day 9 of SC dosing, individual animals) is given as 100. The “Food Consumption, Day 10” value in series [1] (day 10 of SC dosing, individual animals) was 100. The “Food Consumption, Day 11” value in series [1] (day 11 of SC dosing, individual animals) was determined as 100. The “Food Consumption, Day 12” value in series [1] (day 12 of SC dosing, individual animals) amounted to 100. In addition, the “Food Consumption, Day 13” value in series [1] (day 13 of SC dosing, individual animals) is 50 and 100. Besides, in series [1] (day 14 of SC dosing, individual animals), the “Food Consumption, Day 14” value was 75 and 100. Moreover, the “Food Consumption, Day −1” value in series [1] (day −1 (before dosing), individual animals) is reported as 100. The “Food Consumption, Day −2” value in series [1] (day −2 (before dosing), individual animals) was 75 and 100. In series [1] (day −3 (before dosing), individual animals), the “Food Consumption, Day −3” value is on record as 100. For the same molecule, in series [1] (day −4 (before dosing), individual animals), the “Food Consumption, Day −4” value is given as 100. The “Food Consumption, Day −5” value in series [1] (day −5 (before dosing), individual animals) turned out to be 100. For the same molecule, the “Food Consumption, Day −6” value in series [1] (day −6 (before dosing), individual animals) is 50.

For the molecule “cyclo[4-(NH2—C2H4—NH—CO—O)Pro-Phg-DTrp-Lys-Tyr(4-Bzl)-Phe] [SOM230]”, in the series with somatostatin receptors, the “Binding to somatostatin receptors” value was “binds to all somatostatin receptors except SSTR4”.

B1: FGF23CTP: unique 75-mer COOH-terminal peptide of FGF-23, SEQ ID NO: 2 (peptide, listed as Homo sapiens)
chain: HTRSAEDDSERDPLNVLKPRARMTPAPASCSQELPSAEDNSPMASDPLGVVRGGRVNTHAGGTGPEGCRPFAKFI
For the molecule B1, the “Proliferation score, Mean Difference (paired t-test, treated right eye vs PBS left eye)” value in series [2] (6 μg intravitreal, DF 28, P-Value 0.0375) is on record as −3.172. Moreover, in series [2] (intravitreal injection, b229 p=0.018, b476 paired t-test p=0.04), the “Effect on proliferative component of retinal angiopathy / proliferation score” value is “significantly inhibited; also recorded: reaches statistical significance”. In series [2] (setting [3]), the avascular zone was 1 (7×) and 2 (4×) and 0 (3×) and 3 (7×) and 4 (4×) and 7 and 6 (2×) and 5; the blood vessel tufts was 6 (4×) and 2 (3×) and 4 (3×) and 1 (2×) and 3 and 5 (2×) and 0 (2×) and 7 (4×) and 10 (3×) and 14 (2×) and 13 and 11 and 9; the “large clusters of prolif.” value was 0 (16×) and 1 (6×) and 2 (2×) and 3 (2×) and 4 (2×) and 5; the proliferation sum was 7 (2×) and 2 (3×) and 4 (4×) and 1 (2×) and 6 (4×) and 5 and 0 (2×) and 8 (2×) and 10 (2×) and 11 and 17 and 12 (2×) and 18 (2×) and 14. In series [2] (setting [3]), the tortuosity of vessels was 0 (8×) and 2 (7×) and 3 and 1 (9×) and 5 and 6 (2×) and 4. Further, in series [2] (setting [4]), the “Paired t-test avascular zone: Mean Difference” value is reported as −0.034, the “Paired t-test proliferation sum: Mean Difference” value is reported as −2.724 and the “Paired t-test tortuosity of the vessels: Mean Difference” value is listed as −0.517. In addition, in the series on retinal neuronal layers (five days after injection), the “Thickness of the inner nuclear layer, outer nuclear layer, ganglion cell layer vs PBS” value was “no marked difference”. In the series on retinal neuronal layers (setting [5]), the “Ganglion cell layer thickness, average” value came out at 2.25 mm; the “Inner nuclear layer thickness, average” value came out at 6 mm; the “Outer nuclear layer thickness, average” value stood at 10.63 mm. The “Neuronal damage in the eye” value in the series on retinal neuronal layers (three animals, five days after injection) is reported as “not to induce any neuronal damage”.

(Values after US20130040882A1, “USE OF FIBROBLAST GROWTH FACTOR FRAGMENTS” (NOVARTIS AG, priority 2003, published 2013).)
